From US20060159617A1, “Small technetium-99m and rhenium labeled agents and methods for imaging tissues, organs and tumors” (priority 2002, published 2006)

Legend:
B16 melanoma = experiment: In-vivo tumor uptake / biodistribution, B16 melanoma-bearing mice; details: 1 h, B16/F0 melanoma mice
Description: (§1) To study the tumor uptake of radiolabeled metal complexes, in vivo, biodistribution experiments at 1 h after their administration were carried out in C57B16 male mice with palpable B16 melanoma nodules and male nude mice bearing DU145 human prostate carcinoma in the hind limb.
(§2) The biodistribution data including tumor/nontumor (T/NT) ratios for selected organs are summarized in Table 1 and 2 as percentage injected dose per gram (% ID/g).

[1] = system: DU145 human prostate carcinoma; experiment: In-vivo tumor uptake / biodistribution, DU145 tumor-bearing nude mice; details: 1 h
Description: as §1, §2

σ2 receptor = biological target: T1, σ2 receptor (Rattus norvegicus, UniProt Q5U3Y7); experiment: σ2 receptor competition binding assay with [3H]-DTG, σ1 masked; details: apparent Ki, rat liver membranes
T1 construct: Rat liver membranes were prepared from male Sprague-Dawley rat livers as previously described; from tissue; host or cells: male Sprague-Dawley rat liver membranes
T1 sequence (Q5U3Y7 1-176): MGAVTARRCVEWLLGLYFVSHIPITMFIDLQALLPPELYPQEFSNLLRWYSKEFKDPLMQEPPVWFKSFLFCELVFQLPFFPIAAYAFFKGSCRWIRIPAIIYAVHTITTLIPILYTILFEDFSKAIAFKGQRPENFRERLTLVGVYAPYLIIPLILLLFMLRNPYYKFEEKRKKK
Description: Rat liver membranes were prepared from male Sprague-Dawley rat livers as previously described (Eur. J. Pharmacol.—Mol. Pharmacol. Sect. 1994, 268, 9-18). The in vitro σ2 receptor binding affinities of rhenium coordinated complexes were determined in a competition assay using rat livers and [^3H]-DTG (31 Ci/mmol, NEN Life Science Inc., Cambridge, Mass.) as radioligand in the presence of 10 μM 1-pyrrolidinylethyl 3,4-dichlorophenylacetate oxalate (ACT915 oxalate) to mask σ1 receptors (Bioorg. & Med. Chem. Lett. 2000, 10, 17-18). Competition assays were performed with twelve concentrations of the nonradioactive rhenium complexes ranging from 1×10^−10 to 1×10^−3 and protein samples (0.15 mg of membrane protein) in a total volume of 0.25 mL of Tris-HCl (50 mM, pH 8.0) for 120 min at 25° C. All other manipulations and data analysis were performed as described vide supra for the σ1-receptor assays.

α1 receptor = experiment: Alpha-1 receptor competition binding assay with [3H]-Prazosin; details: apparent Ki, rat frontal cortex
Description: The in vitro α1 receptor binding affinities of rhenium coordinated complexes were determined in a competition assay using rat frontal cortex and high-affinity α1 ligand [^3H]-Prazosin (80 Ci/mmol, NEN Life Science Inc., Cambridge, Mass.). See, Eur. J. Nucl. Med. 2002, 29, 82-87.
(§3) The frontal cortex of rat brain was prepared as described above and store at −70° C. until used in the binding assays. Ten concentrations of the nonradioactive rhenium complexes ranging from 1×10^−10 to 1×10^−3 and protein samples (0.15 mg of membrane protein) were incubated with 1.5 nM [^3H]-Prazosin in a total volume of 0.25 mL of Tris-HCl (50 mM, pH 7.4, 10 mM MgSO4). Incubations were carried out for 60 min at 25° C. All assays were terminated by dilution with 5 mL of ice-cold Tris-HCl (10 mM), pH 7.4, and solution were filtered through glass-fiber filters (Whatman GF/F; presoaked in 0.5% polyethyleneimine for 30 min at 25° C.). Filters were then washed three times with 5 mL of ice-cold Tris-HCl (50 mM, pH 7.4), and counted in Hionic-Fluor cocktail (Packard, Groningen, the Netherlands). The corresponding IC50 values were determined with Origin 6.0 software (OriginLab, Northampton, Mass.) and were used for the calculation of the apparent Ki values with the Cheng-Prusoff equation. See, Biocheni. Pharmacol. 1973, 22, 3099-3108.

[2] = Determination of lipophilicity and pKa values by HPLC; assay type: physicochemical
Description: The lipophilicity and pKa values of all complexes were determined using HPLC methods described previously (Stylli, C.; Theobald, A. E. Determination of Ionization Constants of Radiopharmaceuticals in Mixed Solvents by HPLC. Appl. Radiat. Isot., 1987, 38, 701-708; Johannsen, B.; Scheunemann, M.; Spies, H.; Brust, P.; Wober, J.; Syhre, R.; Pietzsch, H.-J. Technetium(V) and Rhenium(V) Complexes for 5-HT2A Serotonin Receptor Binding: Structure-Affinity Considerations. Nucl. Med. Biol., 1996, 23, 429-438; and Johannsen, B.; Berger, R.; Brust, P.; Pietzsch, H.-J.; Scheunemann, M.; Seifert, S.; Spies, H.; Syhre, R. Structural Modification of Receptor-Binding Technetium-99m Complexes in Order to Improve Brain Uptake. Eur. J. Nucl. Med. 1997, 24, 316-319). […] The mobile phase was acetonitrile:phosphate buffer (0.01 M), 3:1, v/v, with the aqueous buffer adjusted to the desired pH between 3 and 11. The capacity factor (k′) was calculated for each determination (Braumann, T.; Grimme, L. H. Determination of Hydrophobic Parameters for Pyridazinone Herbicides by Liquid-Liquid Partition and Reversed-Phase High-Performance Liquid Chromatography. J. Chromatogr. 1981, 206, 7-15; El Tayer, N.; van der Waterbeemd, H.; Testa, B. Lipophilicity Measurements of Protonated Basic Compounds by Reversed-Phase High-Performance Liquid Chromatography. II. Procedure for the Determination of a Lipophilic Index Measured by Reversed-Phase High Performance Liquid Chromatography. J. Chromatogr. 1985, 320, 305-312; and Minick, D. J.; Frenz, J. H.; Patrick, M. A.; Brent, D. A. A Comprehensive Method for Determining Hydrophobicity Constants by Reversed-Phase High-Performance Liquid Chromatography. J. Med. Chem., 1988, 31, 1923-1933) and the partition coefficient at a given pH (D or logD) were calculated from the equation: log D=a log k′+b where the parameters a and b are predetermined using standard amines. The fitted points of inflection from the sigmoidal DHPLC/pH profiles permit calculation of the pKHPLC(Stylli, C.; Theobald, A. E. Determination of Ionization Constants of Radiopharmaceuticals in Mixed Solvents by HPLC. Appl. Radiat. Isot., 1987, 38, 701-708). The aqueous ionization constants pKa were calculated from the pKHPLC values after correction with a predetermined correction factor obtained using standard amine compounds. Log P values of the neutral complexes were estimated from the respective upper plateau of the sigmoidal log D/pH curve in the alkaline range.

σ1 receptor = biological target: T2, σ1 receptor (Cavia porcellus, UniProt Q60492); experiment: Sigma-1 receptor competition binding assay with [3H]-(+)-pentazocine; parameters: species or system guinea pig; details: apparent Ki (Cheng-Prusoff), brain membranes
T2 construct: The membranes were prepared from guinea pig brain (minus cerebellum) as described above; from tissue; host or cells: guinea pig brain (minus cerebellum) membranes
Description: The in vitro σ1 receptor binding affinities of rhenium coordinated complexes were determined in a competition assay using […] and high-affinity σ1 ligand [3H]-(+)-pentazocine (28 Ci/mmol, NEN Life Science Inc., Cambridge, Mass.). See, Mol. Neuropharmacol. 1993, 3, 117-126.
The membranes were prepared from guinea pig brain (minus cerebellum) as described above and stored at −70 ° C. Twelve concentrations of the nonradioactive rhenium complexes ranging from 1×10^−11 to 1×10^−3 and protein samples (0.15 mg of membrane protein) were incubated with […] [3H]-(+)-pentazocine in a total volume of 0.25 mL of Tris-HCl (50 mM, pH 8.0). Incubations were carried out for 120 min at 25° C. All assays were terminated by dilution with 5 mL of ice-cold Tris-HCl (10 mM), pH 8.0, and solution were filtered through glass-fiber filters (Whatman GF/F; presoaked in 0.5% polyethyleneimine for 30 min at 25° C.). Filters were then washed three times with 5 mL of ice-cold Tris-HCl (50 mM, pH 8.0), and counted in Hionic-Fluor cocktail (Packard, Groningen, the Netherlands). The corresponding IC50 values were determined with Origin 6.0 software (OriginLab, Northampton, Mass.) and were used for the calculation of the apparent Ki values with the Cheng-Prusoff equation. See, Biochem. Pharmacol. 1973, 22, 3099-3108.

5HT1A receptor = biological target: T3, 5HT1A receptor (Rattus norvegicus, UniProt P19327); experiment: 5HT1A receptor competition binding assay with [3H]-8-OH-DPAT; details: apparent Ki, rat hippocampus
T3 construct: The brains were rapidly removed, and hippocampus, frontal cortex, hypothalamus, and striatum were hand-dissected on ice; from tissue; host or cells: male Sprague-Dawley rat hippocampus membranes
T3 sequence (P19327 1-422): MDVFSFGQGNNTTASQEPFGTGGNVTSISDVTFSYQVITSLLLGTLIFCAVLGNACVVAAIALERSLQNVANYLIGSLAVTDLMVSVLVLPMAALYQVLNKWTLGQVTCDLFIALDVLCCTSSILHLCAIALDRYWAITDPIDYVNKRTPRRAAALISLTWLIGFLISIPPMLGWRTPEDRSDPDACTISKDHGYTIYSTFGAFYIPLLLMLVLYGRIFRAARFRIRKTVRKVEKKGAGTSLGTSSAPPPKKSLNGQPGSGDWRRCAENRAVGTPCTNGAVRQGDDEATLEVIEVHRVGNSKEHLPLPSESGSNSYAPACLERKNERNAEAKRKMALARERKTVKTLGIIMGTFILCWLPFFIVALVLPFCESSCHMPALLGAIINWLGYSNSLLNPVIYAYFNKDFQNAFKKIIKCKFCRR
Description: The in vitro 5HT1A binding affinities of rhenium coordinated complexes were determined in a competition assay using rat hippocampus and high-affinity 5HT1A-ligand [^3H]-8-OH-DPAT (135 Ci/mmol, NEN Life Science Inc., Cambridge, Mass.). See, Brain Res. 1995, 673, 217-225.
Male Sprague-Dawley rats (weighing 150-170 g) were sacrificed using anesthesia agent isoflurane. The brains were rapidly removed, and hippocampus, frontal cortex, hypothalamus, and striatum were hand-dissected on ice and stored at −70° C. Tissue was thawed at room temperature and homogenized using a Brinkmann Polytron tissue disrupter in 50 volumes (wt/vol) of ice-cold 50 mM Tris-HCl buffer (pH 7.4). The suspension was centrifuged twice at 27,000 g for 20 min at 4° C. The membrane pellets were resuspended in 50 volumes of (wt/vol) Tris-HCl buffer and incubated at 37° C. for 20 min in a water bath, before a final centrifugation step (27,000 g; 20 min; 4° C.). The final tissue pellets were stored at −70° C. until assayed.
as §3, with “Twelve” for “The frontal cortex of rat brain was prepared as described above and store at −70° C. until used in the binding assays. Ten”, “1×10^−11” for “1×10^−10”, “1×10^−4” for “1×10^−3”, “[^3H]-8-OH-DPAT” for “[^3H]-Prazosin”, “Biochem.” for “Biocheni.”

T2 sequence (Q60492 whole entry): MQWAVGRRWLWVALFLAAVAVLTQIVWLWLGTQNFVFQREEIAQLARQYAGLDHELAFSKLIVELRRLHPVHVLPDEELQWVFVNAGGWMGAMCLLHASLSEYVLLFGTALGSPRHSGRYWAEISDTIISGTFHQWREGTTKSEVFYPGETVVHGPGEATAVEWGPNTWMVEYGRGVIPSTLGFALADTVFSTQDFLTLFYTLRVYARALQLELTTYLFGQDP

## O=C1CN(CCCN2CCC(Cc3ccccc3)CC2)CC[S][99Tc]2(=[O])[S]CC[N]12 (centres unmarked) [Re 99mTc-15]
B16 melanoma
  Tumor/Blood ratio: 7.47
  Tumor/Liver ratio: 0.21
  Tumor/Lung ratio: 0.31
  Tumor/Muscle ratio: 3.57
B16 melanoma; blood
  Blood %ID/g: 0.44 %ID/g
B16 melanoma; brain
  Brain %ID/g: 0.48 %ID/g
B16 melanoma; heart
  Heart %ID/g: 1.87 %ID/g
B16 melanoma; intestine
  Intestine %ID/g: 14.38 %ID/g
B16 melanoma; kidney
  Kidney %ID/g: 7.66 %ID/g
B16 melanoma; liver
  Liver %ID/g: 10.23 %ID/g
B16 melanoma; lung
  Lung %ID/g: 15.60 %ID/g
B16 melanoma; muscle
  Muscle %ID/g: 0.90 %ID/g
B16 melanoma; skin
  Skin %ID/g: 1.21 %ID/g
B16 melanoma; spleen
  Spleen %ID/g: 5.95 %ID/g
B16 melanoma; stomach
  Stomach %ID/g: 6.81 %ID/g
B16 melanoma; tumor
  Tumor %ID/g: 3.18 %ID/g
[1]
  Tumor/Blood ratio: 7.93
  Tumor/Liver ratio: 0.21
  Tumor/Lung ratio: 0.25
  Tumor/Muscle ratio: 2.33
[1]; blood
  Blood %ID/g: 0.31 %ID/g
[1]; brain
  Brain %ID/g: 0.51 %ID/g
[1]; heart
  Heart %ID/g: 1.82 %ID/g
[1]; intestine
  Intestine %ID/g: 20.94 %ID/g
[1]; kidney
  Kidney %ID/g: 7.92 %ID/g
[1]; liver
  Liver %ID/g: 12.06 %ID/g
[1]; lung
  Lung %ID/g: 9.96 %ID/g
[1]; muscle
  Muscle %ID/g: 1.06 %ID/g
[1]; skin
  Skin %ID/g: 1.76 %ID/g
[1]; spleen
  Spleen %ID/g: 7.56 %ID/g
[1]; stomach
  Stomach %ID/g: 5.26 %ID/g
[1]; tumor
  Tumor %ID/g: 2.46 %ID/g

## O=C1CN(CCCN2CCC(O)(c3ccc(Cl)cc3)CC2)CC[S][Re]2(=[O])[S]CC[N]12 (centres unmarked) [Re-18]
σ2 receptor
  Ki: 528 ± 111 nM
α1 receptor
  Ki: 980 ± 180 nM
[2]; HPLC capacity factor at pH 7.4
  k' (pH = 7.4): 29.7
[2]; HPLC capacity factor, maximum
  k' (Max): 37.5
[2]; HPLC method, corrected with standard amines
  pKa (Corrected): 7.26
σ1 receptor
  Ki: 2960 nM

## O=C1CN(CCCN2CCC(c3ccccc3)CC2)CC[S][Re]2(=[O])[S]CC[N]12 (centres unmarked) [Re-21]
5HT1A receptor
  Ki: 55.7 ± 8.3 nM
σ2 receptor
  Ki: 84.6 ± 7.9 nM
α1 receptor
  Ki: 39 ± 4 nM
σ1 receptor
  Ki: 553 nM

## O=C(CN1CC[S][Re]2(=[O])[S]CC[N]2C(=O)C1)NC1CCN(Cc2ccccc2)CC1 (centres unmarked) [Re-22]
σ2 receptor
  Ki: 4710 ± 986 nM
σ1 receptor
  Ki: 5510 nM
